We go through 1 molecule from US11684581B2, “Drug and layered silicate composite with improved oral bioavailability, oral pharmacological composition containing the composite and method for producing the composite” (KOREA INSTITUTE OF GEOSCIENCE AND MINERAL RESOURCES, priority 2018, dated 2023).

Data set [1] in a line: Solubility of sorafenib in mixed solvent (acetonitrile / 1 N hydrochloric acid / dimethyl sulfoxide). The class given is physicochemical. The note with it: aqueous with cosolvent or surfactant or cyclodextrin; 15% acetonitrile, 83% 1 N hydrochloric acid, 2% dimethyl sulfoxide; read-out: solubility of sorafenib (dissolved concentration). The method, then: In one example, the solubility of sorafenib when the ratio between acetonitrile and 1 N hydrochloric acid was adjusted while the dimethyl sulfoxide ratio in the total mixed solvent was fixed at 2% was measured. As a result, we dissolved the sorafenib at a concentration of 0.5 mg/mL while at a concentration of 15% acetonitrile and 83% of 1 N hydrochloric acid.

The nature of data set [2]: In vivo pharmacokinetics analysis after oral administration. The note with it: rat, 10 mg/kg based on sorafenib. How it is done:
In order to evaluate the absorption and disappearance rate of the drug during oral administration, a in vivo pharmacokinetics analysis was performed on rats. A femoral artery of the rat was cannulated with PESO tubes. Then, sorafenib suspension, and sorafenib and bentonite composite suspension as produced according to Present Example 7 were orally administered into the rat. Thereafter, the rat blood was collected through the PESO tube based on a time schedule and was centrifuged to obtain plasma. After the plasma samples were pretreated, the in-blood drug concentration was analyzed using a mass spectrometer. The dose was set to 10 mg/kg based on the amount of the sorafenib. The plasma was collected over 2 days.
FIG. 7 is a graph showing changes in concentration of a drug in a blood over time in oral administration of sorafenib suspension (●) and sorafenib and bentonite composite suspension (□).

The conditions of data set [3]: cited from earlier work.
A short description of data set [4]: Drug release (eruption) experiment in eruption solution, HPLC. The class given is physicochemical. The note with it: 50 rpm. The method, then: Drug release experiments were conducted to confirm the release of the drug from the bentonite based on the surrounding environment type. Specifically, the sorafenib 800 μg and the bentonite composite produced under the process condition of Present Example 7 containing 800 μg of sorafenib were dispersed in 40 ml of an eruption solution respectively to form two dispersions. The, each dispersion was shaken at 37° C. at 50 rpm to effect eruption.
The eruption solution used in this experiment was embodied as each of a solution of 0.1 N HCl in water at pH 1.2 and 50 mM phosphate buffer at pH 7.4. Further, 0.5% (v/v) Tween 80 (Polyoxyethyelene Sorbitan Monooleate) was added to the eruption solution to dissolve the sorafenib sufficiently.
Then, the eruption solution was collected based on a time schedule by 0.4 mL, filtered and analyzed by a high performance liquid chromatography.

Converted amounts (≈) assume the structure as drawn.

For orientation: AUC(0-inf) means total exposure, with the tail of the curve extrapolated. A high value points to high exposure. Broadly, the Cmax is the peak of the concentration-time curve. What is called MRT is the average time that molecules of a dose stay in the body. Usually Tmax stands for the time from dosing to the highest level. What is called half-life is how long it takes for the measured level to halve. What is called AUC(0-t) is the area under the concentration-time curve up to a stated or last time point. Lower therefore signals less exposure.

With `CNC(=O)c1cc(Oc2ccc(NC(=O)Nc3ccc(Cl)c(C(F)(F)F)c3)cc2)ccn1` [Sorafenib, sorafenib], the solubility in data set [1] was 500 µg/mL (≈ 1080 µM). For the same molecule, in data set [2] (plasma), the AUC(0-inf) is 4850 ng·h/mL, the peak level (Cmax) was 100 ± 20 ng/mL, the MRT is 20.5 h and the time to peak (Tmax) was 6.67 h. The molecule further showed a half-life in data set [2] (plasma) of 28.2 ± 6.15 h. Moreover, the AUC(0-t) in data set [2] (plasma collected over 2 days) is 3120 ng·h/mL. Besides, the In vivo half-life in data set [3] (background statement) is 24 to 48 h. For the same molecule, the “amount of the drug taken excreted in feces” value in data set [3] (oral, during about a week until steady-state) is listed as “More than 70%”. The “released amount of the sorafenib” value in data set [4] (50 mM phosphate buffer pH 7.4, 0.5% (v/v) Tween 80, 37° C., 8 hours) is given as “below 30%”. Moreover, the “released amount of the sorafenib” value in data set [4] (0.1 N HCl pH 1.2, 0.5% (v/v) Tween 80, 37° C., 8 hours stated for sorafenib alone) is “below 30%”.
